From ChEMBL document CHEMBL1629412, “Cyclic peptide inhibitors of HIV-1 integrase derived from the LEDGF/p75 protein” (Bioorg Med Chem, 2010)
Calls of active or inactive are those of the source. The calls are words filed in the database; no cut-off is given here. Numbered stars: 1 amine (or outer) side, 2 acyl side, 3 side chain; on linkers, the order of the positions; unused ones are H or OH. Bridge positions count the residues as written; N and C are the ends. Square brackets hold non-standard residues; d marks the D form. Peptide text beside a SMILES is read from it. X2 = O=C(c1ccccc1-c1c2ccc(=O)cc-2oc2cc(O)ccc12)N(CCC(=O)[*:1])C(=O)[*:2]; X1 = O=C(c1ccccc1-c1c2ccc(=O)cc-2oc2cc(O)ccc12)N(CC(=O)[*:1])C(=O)[*:2]; N(6-aminohexyl)Gly = O=C(CN(CCCCCCN[*:3])[*:1])[*:2]; NGly(3-aminopropyl) = O=C(CN(CCCN[*:3])[*:1])[*:2]; N(2-Aminoethyl)Gly = O=C(CN(CCN[*:3])[*:1])[*:2]; Nlys = NCCCCNCC(=O)O

Columns and labels:
[1] = target: Human immunodeficiency virus type 1 integrase (Human immunodeficiency virus 1) (UniProt Q7ZJM1); test: Binding affinity to HIV-1 Integrase by FRET assay
[2] = target: Human immunodeficiency virus type 1 integrase (Human immunodeficiency virus 1) (UniProt Q7ZJM1); test: Inhibition of HIV-1 Integrase at 1:50 protein/compound molar ratio; conditions: concentration not given here
[3] = target: Human immunodeficiency virus type 1 integrase (Human immunodeficiency virus 1) (UniProt Q7ZJM1); test: Inhibition of HIV-1 Integrase; conditions: concentration not given here
[4] = test system: Human immunodeficiency virus 1; test: Antiviral activity against HIV1 infected in human H9 cells assessed as extracellular release of viral protein p24 at 12.5 uM after 8 days; assay type: functional, organism-based
[5] = test system: Human immunodeficiency virus 1; test: Antiviral activity against HIV1 infected in human MAGI cells assessed as Tat-mediated reporter gene expression; assay type: functional, organism-based
[6] = Chemical stability of the compound in presence of trypsin and chymotrypsin mixture at 1 mM after 30 mins by MALDI-TOF MS; assay type: physicochemical; conditions: isolated protein, 0.5 h, 1000 µM
[7] = test system: Human immunodeficiency virus 1; test: Antiviral activity against HIV1 infected in human H9 cells assessed as extracellular release of viral protein p24 at 12.5 uM added to the medium every 2 days; assay type: functional
[8] = test system: Human immunodeficiency virus 1; test: Antiviral activity against HIV1 infected in human H9 cells assessed as extracellular release of viral protein p24 at 12.5 uM added to the medium every 2 days measured after 8 days; assay type: functional; conditions: Human immunodeficiency virus 1, H9
[9] = Chemical stability of the compound in presence of trypsin and chymotrypsin mixture at 1 mM after 150 mins by MALDI-TOF MS; assay type: physicochemical; conditions: isolated protein, 2.5 h, 1000 µM

Sequence of Human immunodeficiency virus type 1 integrase (Human immunodeficiency virus 1) (Q7ZJM1 as listed by the source): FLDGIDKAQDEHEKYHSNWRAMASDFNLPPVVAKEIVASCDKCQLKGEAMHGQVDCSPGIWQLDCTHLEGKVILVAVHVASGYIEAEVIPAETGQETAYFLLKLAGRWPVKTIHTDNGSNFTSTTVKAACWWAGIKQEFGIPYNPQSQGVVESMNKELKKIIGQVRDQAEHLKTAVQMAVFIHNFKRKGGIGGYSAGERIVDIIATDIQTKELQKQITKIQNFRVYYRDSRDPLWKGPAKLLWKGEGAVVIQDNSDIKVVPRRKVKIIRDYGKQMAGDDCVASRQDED

Compound | Activity [1] [µM] | inhibition [2] [%] | Activity [5] | other results
CC[C@H](C)[C@@H]1NC(=O)[C@H](CCCCN)NC(=O)[C@H](CC(C)C)NC(=O)[C@H](CO)NC(=O)[C@H](CC(N)=O)NC(=O)[C@H](Cc2c[nH]c3ccccc23)NC(=O)CCN(C(=O)c2ccccc2-c2c3ccc(=O)cc-3oc3cc(O)ccc23)C(=O)NCCN(CC(N)=O)C(=O)[C@H](C(C)C)NC(=O)[C@H](CC(=O)O)NC(=O)[C@H](CC(C)C)NC(=O)[C@H](CC(N)=O)NC(=O)[C@H](CC(=O)O)NC1=O (WNSLKIDNLDV[N(2-Aminoethyl)Gly]-NH2; linker N-12 via X2) | 6.3 | 54 | – | –
H-WNSLKIDNLDV-OH | 5.1 | 83 | Dose-dependent effect | inhibition [3]: 85%; Activity [4]: inactive; Stability [6]: Unstable; Activity [7]: Active
CC[C@H](C)[C@@H]1NC(=O)[C@H](CCCCN)NC(=O)[C@H](CC(C)C)NC(=O)[C@H](CO)NC(=O)[C@H](CC(N)=O)NC(=O)[C@H](Cc2c[nH]c3ccccc23)NC(=O)CN(C(=O)c2ccccc2-c2c3ccc(=O)cc-3oc3cc(O)ccc23)C(=O)NCCN(CC(N)=O)C(=O)[C@H](C(C)C)NC(=O)[C@H](CC(=O)O)NC(=O)[C@H](CC(C)C)NC(=O)[C@H](CC(N)=O)NC(=O)[C@H](CC(=O)O)NC1=O (WNSLKIDNLDV[N(2-Aminoethyl)Gly]-NH2; linker N-12 via X1) | 5.2 | 51 | – | –
CC[C@H](C)[C@@H]1NC(=O)[C@H](CCCCN)NC(=O)[C@H](CC(C)C)NC(=O)[C@H](CO)NC(=O)[C@H](CC(N)=O)NC(=O)[C@H](Cc2c[nH]c3ccccc23)NC(=O)CCN(C(=O)c2ccccc2-c2c3ccc(=O)cc-3oc3cc(O)ccc23)C(=O)NCCCCN(CC(N)=O)C(=O)[C@H](C(C)C)NC(=O)[C@H](CC(=O)O)NC(=O)[C@H](CC(C)C)NC(=O)[C@H](CC(N)=O)NC(=O)[C@H](CC(=O)O)NC1=O (WNSLKIDNLDV[Nlys]-NH2; linker N-12 via X2) | 3.1 | 65 | – | –
CC[C@H](C)[C@@H]1NC(=O)[C@H](CCCCN)NC(=O)[C@H](CC(C)C)NC(=O)[C@H](CO)NC(=O)[C@H](CC(N)=O)NC(=O)[C@H](Cc2c[nH]c3ccccc23)NC(=O)CCN(C(=O)c2ccccc2-c2c3ccc(=O)cc-3oc3cc(O)ccc23)C(=O)NCCCN(CC(N)=O)C(=O)[C@H](C(C)C)NC(=O)[C@H](CC(=O)O)NC(=O)[C@H](CC(C)C)NC(=O)[C@H](CC(N)=O)NC(=O)[C@H](CC(=O)O)NC1=O (WNSLKIDNLDV[NGly(3-aminopropyl)]-NH2; linker N-12 via X2) | 4 | 19 | – | –
CC[C@H](C)[C@@H]1NC(=O)[C@H](CCCCN)NC(=O)[C@H](CC(C)C)NC(=O)[C@H](CO)NC(=O)[C@H](CC(N)=O)NC(=O)[C@H](Cc2c[nH]c3ccccc23)NC(=O)CN(C(=O)c2ccccc2-c2c3ccc(=O)cc-3oc3cc(O)ccc23)C(=O)NCCCCN(CC(N)=O)C(=O)[C@H](C(C)C)NC(=O)[C@H](CC(=O)O)NC(=O)[C@H](CC(C)C)NC(=O)[C@H](CC(N)=O)NC(=O)[C@H](CC(=O)O)NC1=O (WNSLKIDNLDV[Nlys]-NH2; linker N-12 via X1) | 5 | 90 | Dose-dependent effect | inhibition at 12.5 µM [8]: > 90%; Stability [9]: Unstable; Stability [6]: Stable; inhibition at 12.5 µM ([7]; Human immunodeficiency virus 1, H9, 48 h): 80%
CC[C@H](C)[C@@H]1NC(=O)[C@H](CCCCN)NC(=O)[C@H](CC(C)C)NC(=O)[C@H](CO)NC(=O)[C@H](CC(N)=O)NC(=O)[C@H](Cc2c[nH]c3ccccc23)NC(=O)CN(C(=O)c2ccccc2-c2c3ccc(=O)cc-3oc3cc(O)ccc23)C(=O)NCCCN(CC(N)=O)C(=O)[C@H](C(C)C)NC(=O)[C@H](CC(=O)O)NC(=O)[C@H](CC(C)C)NC(=O)[C@H](CC(N)=O)NC(=O)[C@H](CC(=O)O)NC1=O (WNSLKIDNLDV[NGly(3-aminopropyl)]-NH2; linker N-12 via X1) | 6.5 | 44 | – | –
CC[C@H](C)[C@@H]1NC(=O)[C@H](CCCCN)NC(=O)[C@H](CC(C)C)NC(=O)[C@H](CO)NC(=O)[C@H](CC(N)=O)NC(=O)[C@H](Cc2c[nH]c3ccccc23)NC(=O)CN(C(=O)c2ccccc2-c2c3ccc(=O)cc-3oc3cc(O)ccc23)C(=O)NCCCCCCN(CC(N)=O)C(=O)[C@H](C(C)C)NC(=O)[C@H](CC(=O)O)NC(=O)[C@H](CC(C)C)NC(=O)[C@H](CC(N)=O)NC(=O)[C@H](CC(=O)O)NC1=O (WNSLKIDNLDV[N(6-aminohexyl)Gly]-NH2; linker N-12 via X1) | 3.3 | 48 | inactive | –
CC[C@H](C)[C@@H]1NC(=O)[C@H](CCCCN)NC(=O)[C@H](CC(C)C)NC(=O)[C@H](CO)NC(=O)[C@H](CC(N)=O)NC(=O)[C@H](Cc2c[nH]c3ccccc23)NC(=O)CCN(C(=O)c2ccccc2-c2c3ccc(=O)cc-3oc3cc(O)ccc23)C(=O)NCCCCCCN(CC(N)=O)C(=O)[C@H](C(C)C)NC(=O)[C@H](CC(=O)O)NC(=O)[C@H](CC(C)C)NC(=O)[C@H](CC(N)=O)NC(=O)[C@H](CC(=O)O)NC1=O (WNSLKIDNLDV[N(6-aminohexyl)Gly]-NH2; linker N-12 via X2) | 3.8 | 48 | – | –
